For series [1] the following is noted: cited from earlier work; for LogD value from literature: n-octanol/water; for logD, Literature Value: pH = 7.4, AstraZeneca in-house data.
Series [2] is described as follows: n-octanol/water logD by prior art shake-flask method.
A short description of series [3]: n-octanol/water logD with stock solution of n-octanol-charged nanoparticles (SC-CO2 delivery, example 10). The settings on record: pH 7.4.
Protocol: 30 μL n-octanol was then added into the holder 6 by the use of a micro-pipettor. The autoclave vessel and the sample holder (30 ml in total volume) were charged and flushed with CO2 by opening and closing the valves between the two compartments and external outlets for a few times before the vessels were brought up to the desired pressure (150 bar). The temperature of the autoclave and sample holder was maintained at 40° C., to allow the dispersion of the small quantity of n-octanol into the porous particles. After 2 hours, the high pressure of the system was released to atmosphere very slowly.
An appropriate amount of n-octanol was added to provide a thin n-octanol layer covering the water phase (density of n-octanol is lower than water). The funnel was shaken for 5 to 10 minutes to allow mixing of the n-octanol with water. The funnel was then covered by aluminium foil to protect the solvent mixture from light degradation and evaporation. The funnel was placed in an upright position for 3 days to allow separation of the two phases. The n-octanol phase saturated with water was then collected.
The particles containing nanocomposite were dispersed into 5 mL of this saturated buffer solution to obtain a homogeneous stock-solution with a concentration of 0.0038 mL n-octanol per mL of solution. Partition coefficient measurements were carried out as described below, using such a stock solution prepared in the same way.
After shaking the mixed system for half an hour, the magnetic nanocomposites were precipitated in a few minutes by an external magnet placed near the bottom of the reactor-tube. UV-visible spectrophotometry was used to determine the absorption of analyte at the aqueous phase both before and after partitioning.
For the partition coefficient determination, stock solutions were prepared with a suitable n-octanol/nanoparticle ratio. […]
UV-visible spectrometry was used to quantitatively determine the drug concentration in aqueous phase before and after partitioning. […]
Series [4] can be described thus: physchem.
Series [5] is described as follows: physchem. This is another data set of the same source.
Setting [6] is: pH 7.4, LogD value measured (Prior art method) (pH = 7.4), single measurements, water:n-octanol 100:1.
Setting [7] is: pH 7.4, Mean logD value measured (Prior art method) (ph = 7.4), mean of five, water:n-octanol 100:1.
Setting [8] is: single measurements, water:n-octanol 100:1.
Where [9] appears, read: pH 7.4, LogD value measured by present invention (pH = 7.4), single measurements, water:n-octanol 100:1.
Where [10] appears, read: pH 7.4, Mean logD value measured by present invention (pH = 7.4), mean of five, water:n-octanol 100:1.
[11] abbreviates: n-octanol/water, pH 7.4, LogD value measured (Prior art method) (pH = 7.4), single measurements, water:n-octanol 100:1.
The mark [12] stands for this setting: pH 7.4, logD, Magnetic nano-composite method, water/n-octanol 100, average of at least five, confidence level 95%.
The mark [13] stands for this setting: n-octanol/water, pH 7.4, Mean logD value measured (Prior art method) (ph = 7.4), mean of five, water:n-octanol 100:1.
[14] abbreviates: n-octanol/water, pH 7.4, logD, Shake-Flask Method, water/n-octanol 100, average of at least five, confidence level 95%.

The text below walks through data of patent US20070042507A1, “Composite nanoparticles” (priority 2003, published 2007).

SMILES strings stand for the structures. Values joined by “and” are separate entries in the source; they are usually repeats but may differ in a detail not shown here. Equal entries are not always repeated. Where two headings read alike, the source gives them in different places.

As for `Nc1ccccc1` [Aniline], the “LogD value from literature” value in series [1] is listed as 0.900. Besides, the logD in series [2] (setting [6]) came out at 0.936, the log distribution coefficient (logD) in series [2] (setting [7]) was determined as 0.934 ± 0.0094, the pH-dependent lipophilicity (logD) under setting [9] is 0.963 and the logD under setting [10] came out at 0.973 ± 0.0303. For the same compound, the “LogD value measured (Prior art method) (pH = 7.4)” value in series [2] (setting [8]) was 0.945 and 0.929 and 0.926 and 0.932. The “LogD value measured by present invention (pH = 7.4)” value under setting [8] was 0.990 and 0.935 and 0.989.
Consider `O=[N+]([O-])c1ccc(CO)cc1` [4-Nitrobenzyl alcohol], for which the “LogD value from literature” value in series [1] was 1.260. Besides, the “logD, Literature Value” in series [1] is given as 1.260. Further, the log distribution coefficient (logD) in series [2] (setting [11]) was determined as 1.25, the log distribution coefficient (logD) under setting [9] was 1.27, the pH-dependent lipophilicity (logD) under setting [10] amounted to 1.27 ± 0.0381 and the pH-dependent lipophilicity (logD) under setting [12] is 1.27 ± 0.038. Moreover, in series [2] (setting [8]), the “LogD value measured (Prior art method) (pH = 7.4)” value is 1.264 and 1.244 and 1.256.
For the compound `O=[N+]([O-])c1ccc(O)cc1` [4-Nitrophenol], in series [1], the “LogD value from literature” value is 1.480. Moreover, in series [1], the “logD, Literature Value” is given as 1.480. For the same compound, the logD in series [2] (setting [6]) is 1.77; the logD in series [2] (setting [7]) was 1.78 ± 0.019; the logD in series [2] (pH 7.4, logD, Shake-Flask Method, water/n-octanol 100, average of at least five, confidence level 95%) came out at 1.486 ± 0.009; the logD in series [3] turned out to be 1.45 ± 0.026; the logD under setting [9] was 1.81; the logD under setting [10] amounted to 1.807 ± 0.0052. Besides, the log distribution coefficient (logD) under setting [12] amounted to 1.49 ± 0.021. Also, in series [2] (setting [8]), the “LogD value measured (Prior art method) (pH = 7.4)” value was 1.779 and 1.811 and 1.780.
Regarding `CN(C)CCCN1c2ccccc2Sc2ccc(Cl)cc21` [Chlorpromazine], the “LogD value from literature” value in series [1] is listed as 3.200. Further, the “logD, Literature Value” in series [1] is 3.200. Moreover, the logD in series [2] (setting [11]) is 3.08; the logD in series [2] (setting [13]) was determined as 3.076 ± 0.0047; the logD in series [2] (setting [14]) is 3.076 ± 0.005; the logD in series [3] came to 3.17 ± 0.448; the logD under setting [9] came out at 3.14; the log distribution coefficient (logD) under setting [10] is 3.164 ± 0.0111. Under setting [12], this compound gave a logD of 3.164 ± 0.011. In addition, the “LogD value measured (Prior art method) (pH = 7.4)” value in series [2] (setting [8]) was 3.074 and 3.083. Also, the “LogD value measured by present invention (pH = 7.4)” value under setting [8] was 3.179 and 3.186 and 3.124.
`c1ccc2ncccc2c1` [Quinoline]: in series [1], the “LogD value from literature” value is listed as 2.020. The “logD, Literature Value” in series [1] is recorded as 2.020. Further, the logD in series [2] (setting [11]) was determined as 2.12; the logD in series [2] (setting [13]) turned out to be 2.116 ± 0.0039; the logD in series [2] (setting [14]) turned out to be 2.116 ± 0.004; the logD in series [3] is 2.08 ± 0.073; the logD under setting [9] came to 2.19; the logD under setting [10] is 2.186 ± 0.0044. The logD under setting [12] worked out at 2.186 ± 0.004. The “LogD value measured (Prior art method) (pH = 7.4)” value in series [2] (setting [8]) was 2.115 and 2.113 and 2.121 and 2.114.
Regarding `COc1ccc([N+](=O)[O-])cc1` [4-Nitroanisole], the logD amounted to 2.02 in the series “physchem [4]” (pH 7.4, LogD value measured (Prior art method) (pH = 7.4)); 2.01 ± 0.008 in “physchem [4]” (pH 7.4, logD, Shake-Flask Method); 2.01 in the series “physchem [5]” (pH 7.4, LogD value measured by present invention (pH = 7.4)); 2.013 ± 0.012 in “physchem [5]” (pH 7.4, logD, Magnetic nano-composite method); 2.01 in series [2] (setting [11]); 2.01 ± 0.0077 in series [2] (setting [13]). In addition, the logD reads like this: under setting [9], 2.01; under setting [10], 2.013 ± 0.012. Also, under “single measurements, water:n-octanol 100:1, listed as 4-Nitroansiole”, the “LogD value measured by present invention (pH = 7.4)” value was 2.023 and 2.002.
For `NC(=O)c1ccccc1` [Benzamide], the logD under setting [9] was found to be 0.0639.
